pIC50: −log10 of the molar value.
Test system: 521955-158-R2-J5-PDC complex spheroids, viability
Assay: Anticancer human tumor 521955-158-R2-J5-PDC patient-derived pancreatic carcinoma cell line growth inhibition [RAS]
Settings: for pIC50: curve of first compound; for viability, T/C: stronger effect = lower value
Outline: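 Tumour cells grown as complex spheroids with HUVEC endothelial cells and mesenchymal stem cells, treated with RAS pathway inhibitor combinations. Each agent spans half-log steps from near clinical Cmax, or 10 microM where Cmax is unknown.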
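Also: compound exposure lasted seven days before the viability read.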
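For viability, T/C in this document: spheroids also contain HUVEC endothelial cells and mesenchymal stem cells as stroma.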

Compound: Nc1ccn(C2OC(CO)C(O)C2(F)F)c(=O)n1 (configuration not stated) + CCn1c(-c2cccnc2C(C)OC)c2c3cc(ccc31)N1CCOC(CC(NC(=O)C(C(C)C)N(C)C(=O)C3(F)CCN(C(=O)C#CC(C)(C)N(C)C)CC3)C(=O)N3CCCC(N3)C(=O)OCC(C)(C)C2)C1
- pIC50 (second compound 0.000949 µM): 6.81
- pIC50 (second compound 0.003 µM): 6.69
- pIC50 (second compound 0.00949 µM): 6.60
- pIC50 (second compound 0.03 µM): 6.55
- pIC50 (second compound 0.0949 µM): 6.72
- pIC50 (second compound 0.3 µM): 6.96
- viability, T/C (second compound 0.000949 µM, first compound 0.00316 µM): 112%
- viability, T/C (second compound 0.000949 µM, first compound 0.01 µM): 80.2%
- viability, T/C (second compound 0.000949 µM, first compound 0.0316 µM): 75.4%
- viability, T/C (second compound 0.000949 µM, first compound 0.1 µM): 56.8%
- viability, T/C (second compound 0.000949 µM, first compound 0.316 µM): 51.6%
- viability, T/C (second compound 0.000949 µM, first compound 1 µM): 14.4%
- viability, T/C (second compound 0.003 µM, first compound 0.00316 µM): 97.8%
- viability, T/C (second compound 0.003 µM, first compound 0.01 µM): 90.3%
- viability, T/C (second compound 0.003 µM, first compound 0.0316 µM): 79.3%
- viability, T/C (second compound 0.003 µM, first compound 0.1 µM): 67.1%
- viability, T/C (second compound 0.003 µM, first compound 0.316 µM): 39.6%
- viability, T/C (second compound 0.003 µM, first compound 1 µM): 11.8%
- viability, T/C (second compound 0.00949 µM, first compound 0.00316 µM): 85.3%
- viability, T/C (second compound 0.00949 µM, first compound 0.01 µM): 91%
- viability, T/C (second compound 0.00949 µM, first compound 0.0316 µM): 75.9%
- viability, T/C (second compound 0.00949 µM, first compound 0.1 µM): 79.8%
- viability, T/C (second compound 0.00949 µM, first compound 0.316 µM): 42.6%
- viability, T/C (second compound 0.00949 µM, first compound 1 µM): 15.6%
- viability, T/C (second compound 0.03 µM, first compound 0.00316 µM): 95.5%
- viability, T/C (second compound 0.03 µM, first compound 0.01 µM): 78.9%
- viability, T/C (second compound 0.03 µM, first compound 0.0316 µM): 69%
- viability, T/C (second compound 0.03 µM, first compound 0.1 µM): 69.4%
- viability, T/C (second compound 0.03 µM, first compound 0.316 µM): 53.4%
- viability, T/C (second compound 0.03 µM, first compound 1 µM): 10.1%
- viability, T/C (second compound 0.0949 µM, first compound 0.00316 µM): 79.5%
- viability, T/C (second compound 0.0949 µM, first compound 0.01 µM): 77.9%
- viability, T/C (second compound 0.0949 µM, first compound 0.0316 µM): 62.5%
- viability, T/C (second compound 0.0949 µM, first compound 0.1 µM): 65.2%
- viability, T/C (second compound 0.0949 µM, first compound 0.316 µM): 41.2%
- viability, T/C (second compound 0.0949 µM, first compound 1 µM): 11.2%
- viability, T/C (second compound 0.3 µM, first compound 0.00316 µM): 72.2%
- viability, T/C (second compound 0.3 µM, first compound 0.01 µM): 66.9%
- viability, T/C (second compound 0.3 µM, first compound 0.0316 µM): 59.6%
- viability, T/C (second compound 0.3 µM, first compound 0.1 µM): 51.8%
- viability, T/C (second compound 0.3 µM, first compound 0.316 µM): 36.5%
- viability, T/C (second compound 0.3 µM, first compound 1 µM): 12.6%

From PubChem BioAssay AID2060900 (Molecular Pharmacology Branch, DTP, NCI, 2025)
